# Experimental data published in patent publication US8044079B2, “Substituted oxindole derivatives, medicaments containing said derivatives and use thereof” (Abbott GmbH & Co. KG, priority 2005, dated 2011).
# Target: T1, human vasopressin V1b receptor (Homo sapiens, UniProt P47901)
# T1 construct: expressed in transfected cells; host or cells: CHO-K1 (cell line hV1b_3H2_CHO), membrane preparation
# T1 sequence (P47901 1-424): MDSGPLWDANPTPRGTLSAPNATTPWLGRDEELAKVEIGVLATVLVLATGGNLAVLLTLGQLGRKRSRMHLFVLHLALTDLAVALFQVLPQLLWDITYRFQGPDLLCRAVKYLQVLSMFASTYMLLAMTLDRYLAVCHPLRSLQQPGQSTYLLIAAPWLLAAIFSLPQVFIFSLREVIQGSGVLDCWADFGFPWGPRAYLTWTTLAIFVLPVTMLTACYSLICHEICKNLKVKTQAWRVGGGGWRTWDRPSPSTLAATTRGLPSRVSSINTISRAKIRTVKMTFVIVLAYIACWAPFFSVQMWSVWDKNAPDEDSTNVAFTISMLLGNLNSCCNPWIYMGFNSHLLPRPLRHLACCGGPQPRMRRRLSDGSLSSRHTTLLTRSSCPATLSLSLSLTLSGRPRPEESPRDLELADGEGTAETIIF
# Test: Vasopressin V1b receptor binding test
# Settings: membranes of CHO-K1 cells with human V1b receptor, displacement of 1.5 nM 3H-AVP; for compounds with more than one stereogenic center the diastereomer with greater affinity
# In short: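 Radioligand displacement on membranes carrying human V1b receptor in 50 mM tris, 10 mM MgCl2, 0.1% BSA, pH 7.4, 2% DMSO final; 60 min at room temperature, nonspecific binding with 1 μM AVP. Free ligand removed by filtration, bound counted by liquid scintillation, Ki from nonlinear regression of triplicates.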
row,Ki,Structure (SMILES)
1,< 10 nM,"CCNCc1cc2c(c(C3(N4CCC[C@H]4c4ncco4)C(=O)N(S(=O)(=O)c4ccc(OC)cc4)c4ccc(Cl)cc43)c1)OCO2 (stereo partly drawn) [Example 188, 5-Chloro-3-(6-ethylaminomethylbenzo[1,3]dioxol-4-yl)-1-(4-methoxybenzenesulfonyl)-3-((S)-2-oxazol-2-yl-pyrrolidin-1-yl)-1,3-dihydroindol-2-one]"
2,10 to 100 nM,"CCNCc1ccc(C2(N3C[C@H](O)C[C@H]3c3ncco3)C(=O)N(S(=O)(=O)c3ccc(C#N)cc3)c3ccc(Cl)cc32)c(OC)c1 (stereo partly drawn) [Example 189, 5-Chloro-3-(4-ethylaminomethyl-2-methoxyphenyl)-3-((2S,4R)-4-hydroxy-2-oxazol-2-yl-pyrrolidin-1-yl)-1-(4-cyanobenzenesulfonyl)-1,3-dihydroindol-2 one]"
3,10 to 100 nM,"CNCc1ccc(C2(N3C[C@H](O)C[C@H]3c3ncco3)C(=O)N(S(=O)(=O)c3ccc(C#N)cc3)c3ccc(Cl)cc32)c(OC)c1 (stereo partly drawn) [Example 190, 5-Chloro-3-((2S,4R)-4-hydroxy-2-oxazol-2-yl-pyrrolidin-1-yl)-3-(2-methoxy-4-methylaminomethylphenyl)-1-(4-cyanobenzenesulfonyl)-1,3-dihydroindol-2 one]"
4,< 10 nM,"COc1ccc(S(=O)(=O)N2C(=O)C(c3cc(CN4CCC(O)CC4)ccc3OC)(N3CCC[C@H]3c3ncco3)c3cc(C#N)ccc32)cc1 (stereo partly drawn) [Example 191, 5-Cyano-3-[5-(4-hydroxypiperidin-1-ylmethyl)-2-methoxyphenyl]-1-(4-methoxybenzenesulfonyl)-3-((S)-2-oxazol-2-yl-pyrrolidin-1-yl)-1,3-dihydroindol-2-one]"
5,< 10 nM,"COc1ccc(S(=O)(=O)N2C(=O)C(c3cccc(CN4CCN(C)CC4)c3OC)(N3CCC[C@H]3c3ncco3)c3cc(Cl)ccc32)cc1 (stereo partly drawn) [Example 192, 5-Chloro-1-(4-methoxybenzenesulfonyl)-3-[2-methoxy-3-(4-methylpiperazin-1-ylmethyl)phenyl]-3-((S)-2-oxazol-2-yl-pyrrolidin-1-yl)-1,3-dihydroindol-2-one]"
6,< 10 nM,"CCN1CCN(Cc2ccc(C3(N4CCC[C@H]4c4ncco4)C(=O)N(S(=O)(=O)c4ccc(OC)cc4)c4cc(F)c(Cl)cc43)c(OC)c2)CC1 (stereo partly drawn) [Example 193, 5-Chloro-3-[4-(4-ethylpiperazin-1-ylmethyl)-2-methoxyphenyl]-6-fluoro-1-(4-methoxybenzenesulfonyl)-3-((S)-2-oxazol-2-yl-pyrrolidin-1-yl)-1,3-dihydroindol-2-one]"
7,10 to 100 nM,"COc1ccc(S(=O)(=O)N2C(=O)C(c3cccc(CN(C)C)c3OC)(N3CCC[C@H]3c3ncco3)c3cc(Cl)ccc32)cc1 (stereo partly drawn) [Example 194, 5-Chloro-3-(3-dimethylaminomethyl-2-methoxyphenyl)-1-(4-methoxybenzenesulfonyl)-3-((S)-2-oxazol-2-yl-pyrrolidin-1-yl)-1,3-dihydroindol-2-one]"
8,100 to 1000 nM,"COc1ccc(S(=O)(=O)N2C(=O)C(c3cccc(CN4CCCC4)c3OC)(N3CCC[C@H]3c3ncco3)c3cc(Cl)ccc32)cc1 (stereo partly drawn) [Example 195, 5-Chloro-1-(4-methoxybenzenesulfonyl)-3-(2-methoxy-3-pyrrolidin-1-ylmethylphenyl)-3-((S)-2-oxazol-2-yl-pyrrolidin-1-yl)-1,3-dihydroindol-2-one]"
9,10 to 100 nM,"COc1cc(CN2CCN(CCO)CC2)ccc1C1(N2CCC[C@H]2c2ncco2)C(=O)N(S(=O)(=O)c2ccc(C#N)cc2)c2ccc(Cl)cc21 (stereo partly drawn) [Example 197, 5-Chloro-1-(4-cyanobenzenesulfonyl)-3-{4-[4-(2-hydroxyethyl)piperazin-1-ylmethyl]-2-methoxyphenyl}-3-((S)-2-oxazol-2-yl-pyrrolidin-1-yl)-2,3-dihydroindol-2-one]"
10,< 10 nM,"COc1ccc(S(=O)(=O)N2C(=O)C(c3cc(CN4CCN(C)CC4)ccc3OC)(N3CCC[C@H]3c3ncco3)c3cc(Cl)c(F)cc32)cc1 (stereo partly drawn) [Example 198, 5-Chloro-6-fluoro-1-(4-methoxybenzenesulfonyl)-3-[2-methoxy-5-(4-methylpiperazin-1-ylmethyl)phenyl]-3-((S)-2-oxazol-2-yl-pyrrolidin-1-yl)-1,3-dihydroindol-2-one]"
11,< 10 nM,"CCN1CCN(Cc2ccc(C3(N4CCC[C@H]4c4ncco4)C(=O)N(S(=O)(=O)c4ccc(OC)cc4)c4ccc(Cl)c(F)c43)c(OC)c2)CC1 (stereo partly drawn) [Example 199, 5-Chloro-3-[4-(4-ethylpiperazin-1-ylmethyl)-2-methoxyphenyl]-4-fluoro-1-(4-methoxybenzenesulfonyl)-3-((S)-2-oxazol-2-yl-pyrrolidin-1-yl)-1,3-dihydroindol-2-one]"
12,< 10 nM,"COc1ccc(S(=O)(=O)N2C(=O)C(c3cc(CN4CCNCC4)ccc3OC)(N3CCC[C@H]3c3ncco3)c3cc(Cl)c(F)cc32)cc1 (stereo partly drawn) [Example 200, 5-Chloro-6-fluoro-1-(4-methoxybenzenesulfonyl)-3-(2-methoxy-5-piperazin-1-ylmethylphenyl)-3-((S)-2-oxazol-2-yl-pyrrolidin-1-yl)-1,3-dihydroindol-2-one]"
13,< 10 nM,"COc1ccc(S(=O)(=O)N2C(=O)C(c3ccc(CN4CCN(C)CC4)cc3OC)(N3CCC[C@H]3c3ncco3)c3cc(Cl)c(F)cc32)cc1 (stereo partly drawn) [Example 201, 5-Chloro-6-fluoro-1-(4-methoxybenzenesulfonyl)-3-[2-methoxy-4-(4-methylpiperazin-1-ylmethyl)phenyl]-3-((S)-2-oxazol-2-yl-pyrrolidin-1-yl)-1,3-dihydroindol-2-one]"
14,10 to 100 nM,"CCOc1ccc(CN2CCN(C)CC2)cc1C1(N2CCC[C@H]2c2ncco2)C(=O)N(S(=O)(=O)c2ccc(OC)cc2)c2ccc(Cl)cc21 (stereo partly drawn) [Example 202, 5-Chloro-3-[2-ethoxy-5-(4-methylpiperazin-1-ylmethyl)phenyl]-1-(4-methoxybenzenesulfonyl)-3-((S)-2-oxazol-2-yl-pyrrolidin-1-yl)-1,3-dihydroindol-2-one]"
15,10 to 100 nM,"CCOc1ccc(CNC)cc1C1(N2CCC[C@H]2c2ncco2)C(=O)N(S(=O)(=O)c2ccc(OC)cc2)c2ccc(Cl)cc21 (stereo partly drawn) [Example 203, 5-Chloro-3-(2-ethoxy-5-methylaminomethylphenyl)-1-(4-methoxybenzenesulfonyl)-3-((S)-2-oxazol-2-yl-pyrrolidin-1-yl)-1,3-dihydroindol-2-one]"
16,10 to 100 nM,"CCOc1ccc(CN(C)C)cc1C1(N2CCC[C@H]2c2ncco2)C(=O)N(S(=O)(=O)c2ccc(OC)cc2)c2ccc(Cl)cc21 (stereo partly drawn) [Example 204, 5-Chloro-3-(5-dimethylaminomethyl-2-ethoxyphenyl)-1-(4-methoxybenzenesulfonyl)-3-((S)-2-oxazol-2-yl-pyrrolidin-1-yl)-1,3-dihydroindol-2-one]"
17,10 to 100 nM,"CCOc1ccc(CNC(C)C)cc1C1(N2CCC[C@H]2c2ncco2)C(=O)N(S(=O)(=O)c2ccc(OC)cc2)c2ccc(Cl)cc21 (stereo partly drawn) [Example 205, 5-Chloro-3-[2-ethoxy-5-(isopropylaminomethyl)phenyl]-1-(4-methoxybenzenesulfonyl)-3-((S)-2-oxazol-2-yl-pyrrolidin-1-yl)-1,3-dihydroindol-2-one]"
18,10 to 100 nM,"CCNCc1ccc(OCC)c(C2(N3CCC[C@H]3c3ncco3)C(=O)N(S(=O)(=O)c3ccc(OC)cc3)c3ccc(Cl)cc32)c1 (stereo partly drawn) [Example 206, 5-Chloro-3-(2-ethoxy-5-ethylaminomethylphenyl)-1-(4-methoxybenzenesulfonyl)-3-((S)-2-oxazol-2-yl-pyrrolidin-1-yl)-1,3-dihydroindol-2-one]"
19,< 10 nM,"COc1ccc(S(=O)(=O)N2C(=O)C(c3cc(CN4CCN(C)CC4)ccc3OC)(N3CCC[C@H]3c3ncon3)c3cc(Cl)ccc32)cc1 (stereo partly drawn) [Example 207, 5-Chloro-1-(4-methoxybenzenesulfonyl)-3-[2-methoxy-5-(4-methylpiperazin-1-ylmethyl)phenyl]-3-((S)-2-[1,2,4]oxadiazol-3-yl-pyrrolidin-1-yl)-1,3-dihydroindol-2-one]"
20,10 to 100 nM,"COc1ccc(S(=O)(=O)N2C(=O)C(c3cc(CN4CCNCC4)ccc3OC)(N3CCC[C@H]3c3ncon3)c3cc(Cl)ccc32)cc1 (stereo partly drawn) [Example 208, 5-Chloro-1-(4-methoxybenzenesulfonyl)-3-(2-methoxy-5-piperazin-1-ylmethylphenyl)-3-((S)-2-[1,2,4]oxadiazol-3-yl-pyrrolidin-1-yl)-1,3-dihydroindol-2-one]"
21,< 10 nM,"COc1ccc(S(=O)(=O)N2C(=O)C(c3cc(CN(C)C)ccc3OC)(N3CCC[C@H]3c3ncon3)c3cc(Cl)ccc32)cc1 (stereo partly drawn) [Example 209, 5-Chloro-3-(5-dimethylaminomethyl-2-methoxyphenyl)-1-(4-methoxybenzenesulfonyl)-3-((S)-2-[1,2,4]oxadiazol-3-yl-pyrrolidin-1-yl)-1,3-dihydroindol-2-one]"
22,< 10 nM,"COc1ccc(S(=O)(=O)N2C(=O)C(c3cc(CN4CCCC4)ccc3OC)(N3CCC[C@H]3c3ncon3)c3cc(Cl)ccc32)cc1 (stereo partly drawn) [Example 210, 5-Chloro-1-(4-methoxybenzenesulfonyl)-3-(2-methoxy-5-pyrrolidin-1-ylmethylphenyl)-3-((S)-2-[1,2,4]oxadiazol-3-yl-pyrrolidin-1-yl)-1,3-dihydroindol-2-one]"
23,< 10 nM,"COc1ccc(S(=O)(=O)N2C(=O)C(c3ccc(CN4CCNCC4)cc3OC)(N3CCC[C@H]3c3ncco3)c3cc(Cl)c(F)cc32)cc1 (stereo partly drawn) [Example 211, 5-Chloro-6-fluoro-1-(4-methoxybenzenesulfonyl)-3-(2-methoxy-4-piperazin-1-ylmethylphenyl)-3-((S)-2-oxazol-2-yl-pyrrolidin-1-yl)-1,3-dihydroindol-2-one]"
